Test results taken from US20040224958A1, “Pyridopyrimidinone derivatives for treatment of neurodegenerative disease” (priority 2000, published 2004).
Read-outs that look alike come from different tables or passages of the source.

How the values were obtained:
cdc2/cyclinB = cdc2/cyclinB (Homo sapiens, UniProt P06493); test: Cyclin-Dependent Kinase Assay cdc2/cyclinB
Cdk5/p25 = Cdk5/p25 (Homo sapiens, UniProt Q00535); test: Cyclin-Dependent Kinase 5 (cdk5) Assay; assay type: biochemical
Procedure: Cyclin-Dependent Kinase 5 (cdk5) Assay
Enzyme assays for IC50 determinations and kinetic evaluation were performed in 96-well filter plates (Millipore MAPH NOB 10). […] All components except histone and ATP were added to wells, and the plate was placed on a shaker for 5 minutes. The reaction was started by adding histone and [^32P]ATP, and the plate was shaken at 30° C. for 45 minutes. The reaction was terminated by addition of 0.1 mL of 150 mM phosphoric acid. The plate was kept at 4° C. for 30 minutes to allow substrate to precipitate. The wells were then washed three times with 0.2 mL of 75 mM phosphoric acid and ^32P incorporation was determined with a beta plate counter (Wallac Inc, Gaithersburg, Md.).

cdk2/cyclinA = cdk2/cyclinA (Homo sapiens, UniProt P24941); test: Cyclin-Dependent Kinase Assay cdk2/cyclinA
cdk2/cyclinE = cdk2/cyclinE (Homo sapiens, UniProt P24941); test: Cyclin-Dependent Kinase Assay cdk2/cyclinE
cdk4/D = cdk4/D (Homo sapiens, UniProt P11802); test: Cyclin-Dependent Kinase 4 (cdk4) Assay; assay type: biochemical
cdk4/D, sequence (P11802 whole entry): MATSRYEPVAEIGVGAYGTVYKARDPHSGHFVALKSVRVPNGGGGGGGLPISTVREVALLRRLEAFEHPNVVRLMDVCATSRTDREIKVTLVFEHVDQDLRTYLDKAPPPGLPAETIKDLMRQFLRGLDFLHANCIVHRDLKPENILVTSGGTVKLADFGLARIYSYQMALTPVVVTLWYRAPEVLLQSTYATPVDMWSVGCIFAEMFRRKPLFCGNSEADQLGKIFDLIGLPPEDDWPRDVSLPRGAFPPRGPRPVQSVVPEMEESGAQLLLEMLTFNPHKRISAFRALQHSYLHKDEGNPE
cdk4/D, sequence (P24385 whole entry, further chain): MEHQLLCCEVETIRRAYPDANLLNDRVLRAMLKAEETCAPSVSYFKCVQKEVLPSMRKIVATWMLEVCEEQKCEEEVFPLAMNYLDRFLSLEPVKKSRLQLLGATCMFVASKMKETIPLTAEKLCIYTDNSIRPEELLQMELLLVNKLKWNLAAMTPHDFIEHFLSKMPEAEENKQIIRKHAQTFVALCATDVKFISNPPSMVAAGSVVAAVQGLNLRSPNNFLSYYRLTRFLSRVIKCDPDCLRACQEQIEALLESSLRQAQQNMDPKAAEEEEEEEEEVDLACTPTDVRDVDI

cdc2/cyclinB, sequence (P06493 whole entry): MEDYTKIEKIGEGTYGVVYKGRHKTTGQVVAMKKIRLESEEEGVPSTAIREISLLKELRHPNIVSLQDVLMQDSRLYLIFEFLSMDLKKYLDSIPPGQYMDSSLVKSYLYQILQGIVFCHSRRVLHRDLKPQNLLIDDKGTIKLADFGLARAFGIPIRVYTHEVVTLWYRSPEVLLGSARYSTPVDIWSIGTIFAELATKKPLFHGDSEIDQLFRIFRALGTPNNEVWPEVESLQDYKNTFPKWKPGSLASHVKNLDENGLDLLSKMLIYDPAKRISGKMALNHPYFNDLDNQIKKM
cdc2/cyclinB, sequence (P14635 whole entry, further chain): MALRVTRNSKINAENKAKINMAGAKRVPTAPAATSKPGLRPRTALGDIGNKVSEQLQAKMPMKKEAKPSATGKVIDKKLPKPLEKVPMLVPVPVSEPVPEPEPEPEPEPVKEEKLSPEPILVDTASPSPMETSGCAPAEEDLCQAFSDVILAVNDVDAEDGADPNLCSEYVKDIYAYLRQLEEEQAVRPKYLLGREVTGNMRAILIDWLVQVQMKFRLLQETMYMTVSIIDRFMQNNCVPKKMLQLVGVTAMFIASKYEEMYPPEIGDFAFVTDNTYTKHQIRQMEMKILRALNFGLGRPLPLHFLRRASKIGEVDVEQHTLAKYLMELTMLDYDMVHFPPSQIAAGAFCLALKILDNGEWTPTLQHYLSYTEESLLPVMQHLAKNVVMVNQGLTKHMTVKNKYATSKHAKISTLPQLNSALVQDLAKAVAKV

IC50 (Cdk5/p25; Table 1) [nM] | IC50 (cdk4/D; Table 1, read-out: cdk4/D IC50) [nM] | melting point [°C] | Molecule | also measured
349 | 320 | – | O=c1ccc2cnc(Nc3ccc(SC(F)(F)F)cc3)nc2n1C1CC2CCC1C2 (stereo not drawn) [Example 221, 8-Bicyclo[2.2.1]hept-2-yl-2-(4-trifluoromethylsuffanyl-phenylamino)-8H-pyrido[2,3-d]pyrimidin-7-one] | IC50 (cdc2/cyclinB; read-out: cdk1/B IC50, Table 1): 1120 nM; IC50 (cdk2/cyclinA; read-out: cdk2/A IC50, Table 1): 370 nM; IC50 (cdk2/cyclinE; read-out: cdk2/E IC50, Table 1): 511 nM
493 | – | 191 to 193 | O=c1ccc2cnc(Nc3ccccc3)nc2n1C1CC1 [Example 135, 8-Cyclopropyl-2-phenylamino-8H-pyrido[2,3-d]pyrimidin-7-one] | –
32.1 | 3 | – | CC1CN(c2ccc(Nc3ncc4ccc(=O)n(C5CC6CCC5C6)c4n3)cc2)CC(C)N1 (stereo not drawn) [Example 255] | IC50 (cdc2/cyclinB; read-out: cdk1/B IC50, Table 1): 335 nM; IC50 (cdk2/cyclinA; read-out: cdk2/A IC50, Table 1): 67.5 nM; IC50 (cdk2/cyclinE; read-out: cdk2/E IC50, Table 1): 124 nM
218 | – | 169 to 171 | CCn1c(=O)ccc2cnc(Nc3ccc(OCCOC)cc3)nc21 [Example 57, 8-Ethyl-2-[4-(2-methoxyethoxy)phenylamino]-8H-pyrido[2,3-d]pyrimidin-7-one] | –
65 | – | 146 to 147 | CCN1C(=O)CCc2cnc(Nc3ccccc3)nc21 [Example 69, 8-Ethyl-2-phenylamino-5,8-dihydro-6H-pyrido[2,3-d]pyrimidin-7-one] | –
239 | – | 185 to 186 | CCn1c(=O)ccc2cnc(Nc3ccc(N4CCN(C)CC4)cc3)nc21 [Example 53, 8-Ethyl-2-[4-(4-methylpiperazin-1-yl)-phenylamino]-8H-pyrido[2,3-d]-pyrimidin-7-one] | –
765 | – | 198 to 200 | CCn1c(=O)c(C)cc2cnc(Nc3ccc(N4CCN(C)CC4)cc3)nc21 [Example 84, 8-Ethyl-6-methyl-2-[4-(4-methyl-piperazin-1-yl)-phenylamino]-8H-pyrido[2,3-d]pyrimidin-7-one] | –
– | 7.5 | 245 to 246 | O=c1ccc2cnc(Nc3ccc(N4CCC(CCN5CCOCC5)CC4)cc3)nc2n1C1CCCCC1 [Example 258] | IC50 (cdc2/cyclinB): 599 nM; IC50 (cdk2/cyclinA; cdk2/A IC50, Table 1): 73.3 nM; IC50 (cdk2/cyclinE; cdk2/E IC50, Table 1): 200 nM
1430 | – | – | O=c1ccc2cnc(Nc3ccccc3)nc2[nH]1 [Example 32, 2-Phenylamino-8H-pyrido[2,3-d]pyrimidin-7-one] | –
– | – | – | CCC(CC)n1c(=O)ccc2cnc(Nc3ccccc3)nc21 [R′=H, R″=H, R2=1-ethylpropyl, 8-(1-Ethylpropyl)-2-phenylamino-8H-pyrido[2,3-d]pyrimidin-7-one] | IC50 (Cdk5/p25; Table 3): 8.7 nM; IC50 (cdk2/cyclinA; Cdk2/A IC50, Table 3): 127 nM; IC50 (cdk2/cyclinE; Cdk2/E IC50, Table 3): 200 nM; IC50 (cdk4/D; Table 3, read-out: Cdk4 IC50): 159 nM
24 | – | 204 to 205 | CN(C)c1ccc(Nc2ncc3ccc(=O)n(C4CCCCC4)c3n2)cc1 [Example 147, 8-Cyclohexyl-2-(4-dimethylamino-phenylamino)-8H-pyrido[2,3-d]pyrimidin-7-one] | –
15 | – | 202 to 204 | O=c1ccc2cnc(Nc3ccccc3)nc2n1C1CCCCC1 [Example 131, 8-Cyclohexyl-2-phenylamino-8H1-pyrido[2,3-d]pyrimidin-7-one] | –
107 | – | 227 to 228 | CCn1c(=O)ccc2cnc(Nc3ccc(N4CCOCC4)cc3)nc21 [Example 79, 8-Ethyl-2-(4-morpholin-4-yl-phenylamino)-8H-pyrido[2,3-d]pyrimidin-7-one] | –
155 | – | 128 to 129 | CCN(CC)CCOc1ccc(Nc2ncc3ccc(=O)n(CC)c3n2)cc1 [Example 52, 2-[4-(2-Diethylaminoethoxy)-phenylamino]-8-ethyl-8H-pyrido[2,3-d]-pyrimidin-7-one] | –
165 | – | – | O=c1ccc2cnc(Nc3ccccc3)nc2n1-c1ccccc1 [Example 101, 2-Phenylamino-8-phenyl-8H-pyrido[2,3-d]pyrimidin-7-one] | –
568 | – | 175 to 176 | CCn1c(=O)ccc2cnc(Nc3cccc(OC(F)(F)C(F)F)c3)nc21 [Example 54, 8-Ethyl-2-[3-(1,1,2,2-tetrafluoroethoxy)-phenylamino]-8H-pyrido[2,3-d]-pyrimidin-7-one] | –
15 | – | 170 to 171 | CC(C)Cn1c(=O)ccc2cnc(Nc3ccccc3)nc21 [Example 42, 8-Isobutyl-2-phenylamino-8H-pyrido[2,3-d]pyrimidin-7-one] | –

IC50 (Cdk5/p25; Table 1) [nM] | IC50 (cdk4/D; Table 1, read-out: cdk4/D IC50) [nM] | melting point [°C] | Molecule | also measured
26 | – | 188 to 192 | O=c1ccc2cnc(Nc3ccccc3)nc2n1C1CCCC1 [Example 108, 8-Cyclopentyl-2-phenylamino-8H-pyrido[2,3-d]pyrimidin-7-one] | –
44.9 | 3.5 | – | O=c1ccc2cnc(Nc3ccc(N4CCCC(O)C4)cc3)nc2n1C1CC2CCC1C2 (stereo not drawn) [Example 254] | IC50 (cdc2/cyclinB): 175 nM; IC50 (cdk2/cyclinA; cdk2/A IC50, Table 1): 28 nM; IC50 (cdk2/cyclinE; cdk2/E IC50, Table 1): 64 nM
– | 219 | 181 to 182 | O=c1ccc2cnc(Nc3ccc(N4CCCCC4)cc3)nc2n1C1CCOC1 (racemic) [Example 200, 2-(4-Piperidin-1-yl-phenylamino)-8-(tetrahydro-furan-3-yl)-8H-pyrido[2,3-d]pyrimidin-7-one] | IC50 (cdc2/cyclinB): 4340 nM; IC50 (cdk2/cyclinA; cdk2/A IC50, Table 1): 285 nM; IC50 (cdk2/cyclinE; cdk2/E IC50, Table 1): 1900 nM
587 | – | 178 to 180 | CCn1c(=O)c(C)cc2cnc(Nc3ccccc3)nc21 [Example 83, 8-Ethyl-6-methyl-2-phenylamino-8H-pyrido[2,3-d]pyrimidin-7-one] | –
49 | – | 196 to 197 | CCn1c(=O)ccc2cnc(Nc3ccc(OC)cc3)nc21 [Example 51, 8-Ethyl-2-(4-methoxyphenylamino)-8H-pyrido[2,3-d]pyrimidin-7-one] | –
– | 31000 | 232 to 233 | COC(=O)Cn1c(=O)ccc2cnc(Nc3ccccc3)nc21 [Example 36] | –
65 | – | 203 to 204 | CCn1c(=O)ccc2cnc(Nc3ccccc3)nc21 [Example 18, 8-Ethyl-2-phenylamino-8H-pyrido[2,3-d]pyrimidin-7-one] | –
29 | – | 196 to 198 | CCn1c(=O)ccc2cnc(Nc3ccc(OC)c(F)c3)nc21 [Example 90, 8-Ethyl-2-(3-fluoro-4-methoxyphenylamino)-8H-pyrido[2,3-d]pyrimidin-7-one] | –
39.4 | 16 | – | CN(C)CCCN1CCN(c2ccc(Nc3ncc4ccc(=O)n(C5CCCCC5)c4n3)cc2)CC1 [Example 144] | IC50 (cdc2/cyclinB; read-out: cdk1/B IC50, Table 1): 344 nM; IC50 (cdk2/cyclinA; read-out: cdk2/A IC50, Table 1): 102 nM; IC50 (cdk2/cyclinE; read-out: cdk2/E IC50, Table 1): 43 nM
– | 2860 | 95 to 97 | CCN(CC)CCOc1ccc(Nc2ncc3ccc(=O)n(CCOCc4ccccc4)c3n2)cc1 [Example 139] | IC50 (cdk2/cyclinE; cdk2/E IC50, Table 1): 2630 nM
150 | 31.5 | – | O=c1ccc2cnc(Nc3ccc(N4CCCCC4)cc3)nc2n1C1CCCCCC1 [Example 163, 8-Cycloheptyl-2-(4-piperidin-1-yl-phenylamino)-8H-pyrido[2,3-d]primidin-7-one] | IC50 (cdc2/cyclinB; read-out: cdk1/B IC50, Table 1): 642 nM; IC50 (cdk2/cyclinA; read-out: cdk2/A IC50, Table 1): 66.8 nM; IC50 (cdk2/cyclinE; read-out: cdk2/E IC50, Table 1): 193 nM
– | – | – | 8-Isopropyl-2-(4-methoxy-phenylamino)-8H-pyrido[2,3-d]pyrimidin-7-one [Example 622] | IC50 (Cdk5/p25; Table 3): 30 nM; IC50 (cdk2/cyclinA; read-out: Cdk2/A IC50, Table 3): 392 nM; IC50 (cdk2/cyclinE; read-out: Cdk2/E IC50, Table 3): 540 nM; IC50 (cdk4/D; Table 3, read-out: Cdk4 IC50): 4080 nM
288 | 2800 | – | O=c1ccc2cnc(Nc3ccc(N4CCCCC4)cc3)nc2n1[C@H]1C[C@H]2CC[C@@H]1C2 (relative stereo) [Example 229, 8-Dicyclo[2.2.1]hept-2-yl-2-(4-piperidin-1-yl-phenylamino)-8H-pyrido[2,3-d]pyrimidin-7-one] | IC50 (cdc2/cyclinB): 440 nM; IC50 (cdk2/cyclinA; cdk2/A IC50, Table 1): 996 nM; IC50 (cdk2/cyclinE; cdk2/E IC50, Table 1): 3000 nM
– | 197 | 209 to 211 | O=c1ccc2cnc(Nc3ccc(F)cc3)nc2n1C1CCCCC1 [Example 148, 8-Cyclohexyl-2-(4-fluoro-phenylamino)-8H-pyrido[2,3-d]pyrimidin-7-one] | IC50 (cdc2/cyclinB): 1820 nM; IC50 (cdk2/cyclinA; cdk2/A IC50, Table 1): 77.5 nM; IC50 (cdk2/cyclinE; cdk2/E IC50, Table 1): 53.5 nM
17 | – | – | CC(C)n1c(=O)ccc2cnc(Nc3ccc(N4CCN(C)CC4)cc3)nc21 [Example 60, 8-Isopropyl-2-[4-(4-methylpiperazin-1-yl)-phenylamino]-8H-pyrido[2,3-d]-pyrimidin-7-one] | –
– | – | 193 to 195 | CCNc1ncc2ccc(=O)n(-c3ccccc3)c2n1 [Example 100, 2-Ethylamino-8-phenyl-8H-pyrido[2,3-d]pyrimidin-7-one] | –
– | – | 207 to 208 | CCn1c(=O)ccc2cnc(Nc3ccc(-c4ccccc4)cc3)nc21 [Example 49, 2-(Biphenyl-4-ylamino)-8-ethyl-8H-pyrido[2,3-d]pyrimidin-7-one] | –

Molecule | IC50 (Cdk5/p25; Table 1) [nM] | IC50 (cdk4/D; Table 1, read-out: cdk4/D IC50) [nM] | melting point [°C] | also measured
8-Ethyl-2-(pyrimidin-4-ylamino)-8H-pyrido[2,3-d]pyrimidin-7-one [Example 50] | 27 | 2000 | – | –
CCOC(=O)C=Cc1cnc(Nc2ccccc2)nc1N [Example 28, Ethyl 3-(4-Amino-2-phenylamino-pyrimidin-5-yl)acrylate] | – | – | 190 to 192 | IC50 (cdk4/D; Table 2, Formula II compounds, read-out: cdk4 IC50): 65000 nM
